Like-named read-outs stand apart in the source and are kept apart here. *1 amine or outer side, *2 acyl side, *3 side chain or, on linkers, in order; H or OH if unused. Where a SMILES comes first, the peptide text is derived from it. [ ]: non-standard residue; d: D form. d(γGlu) = O=C(O)[C@@H](CCC(=O)[*:2])N[*:1]

This is an account of results in publication PMC11410929, “Biochemical and crystallographic studies of L,D-transpeptidase 2 from Mycobacterium tuberculosis with its natural monomer substrate” (Communications Biology, 2024).

Test [1] concerns the target T1, LdtMt2 (Mycobacterium tuberculosis, UniProt I6Y9J2). As to the kind of experiment: biochemical. Format: binding. To be noted: for ΔTm at 500 µM: pH 7.5, read-out: Shift in melting temperature compared to unmodified LdtMt2, 500 µM; for ΔTm at 1000 µM: pH 7.5, read-out: Shift in melting temperature compared to unmodified LdtMt2, 1 mM; for Shift in melting temperature compared to unmodified LdtMt2, 500 µM / Shift in melting temperature compared to unmodified LdtMt2, 1 mM / Tm 500 µM / Tm 1 mM: pH 7.5. Here is the method: Differential scanning fluorometric thermal shift assays[32]
LdtMt2 (5 µM) was incubated with peptidoglycan fragments (500 µM or 1 mM) in buffer (50 mM tris pH 7.5) for 30 minutes at room temperature, after which time SYPRO Orange (final concentration 6x, according to manufacturer’s definition, Invitrogen) was added. Melting temperatures […]
See Methods for experimental details.
Table S1. […] The melting

Test [2] addresses T1, LdtMt2. Nature of the test: biochemical. Format: biochemical.
Another test concerns the target DAAO and HRP. As to the kind of experiment: Transpeptidase interference assay (no LdtMt2, D-Ala as substrate). Conditions: for Transpeptidase interference assay pIC50 (mean ± SD): DAAO 2 U/mL, HRP 2 U/mL, FAD 40 µM, Amplex red 10 µM, 30 min rt, then D-alanine 500 nM, pH 8.0, quadruplicate. Format: biochemical. Here is the method: The transpeptidase interference assay was performed as described above, with the modification that the LdtMt2 mixture was replaced by 5 µL assay buffer, and the substrate was replaced by D-Ala (500 nM final concentration). Data were analysed using Prism 10 (GraphPad).
Figure S14. Dose-response curves of the transpeptidase interference assay with compounds
14-24. The specified inhibitors were incubated with DAAO (2 U/mL), HRP (2 U/mL), FAD (40 μM) and
Amplex red (10 μM) in 50 mM sodium phosphate pH 8.0 with 100 mM NaCl at room temperature for 30
minutes, after which time D-alanine (500 nM) was added. The pIC50 values and compound structures
See Methods for experimental details. Individual data points are shown.

Test [3] concerns the target T1, LdtMt2. To be noted: thiol-reactive fluorescent probe assay; quadruplicate; ref 6,7 (supplement); cited from earlier work.
Test [4] has as its target T1, LdtMt2. The class given is biochemical. To be noted: pH 7.5.
Test [5] has as its target T1, LdtMt2. To be noted: pH 7.5.
The target of test [6] is T1, LdtMt2. Conditions: pH 8.
For test [7], the target named is T1, LdtMt2. Conditions: cited from earlier work.
The mark [8] stands for this setting: LdtMt2 500 nM, 30 min preincubation rt, substrate 1 35 µM, pH 8.0, 37 °C, n=3, read-out: pIC50, LdtMt2 inhibition by non-substrate peptidoglycan fragments (converted).

T1 sequence (I6Y9J2 56-408): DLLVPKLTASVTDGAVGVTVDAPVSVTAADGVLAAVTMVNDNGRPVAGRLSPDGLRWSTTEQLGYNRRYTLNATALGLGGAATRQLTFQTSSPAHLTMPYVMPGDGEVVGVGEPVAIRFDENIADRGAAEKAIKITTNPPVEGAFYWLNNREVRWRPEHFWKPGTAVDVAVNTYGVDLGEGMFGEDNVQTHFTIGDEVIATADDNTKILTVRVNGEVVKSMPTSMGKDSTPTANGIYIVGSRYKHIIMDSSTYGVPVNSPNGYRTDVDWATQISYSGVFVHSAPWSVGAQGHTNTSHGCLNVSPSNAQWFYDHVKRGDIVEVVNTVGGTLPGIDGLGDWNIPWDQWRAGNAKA

Consider `C[C@H](N)C(=O)N[C@H](CCC(=O)N[C@@H](CCCCN)C(=O)N[C@H](C)C(=O)N[C@H](C)C(=O)O)C(=O)O` [Compound 8, L-Ala-D-iGlu-L-Lys-D-Ala-D-Ala, reference compound], for which, at LdtMt2 [1], the ΔTm at 500 µM was found to be 1.5 °C and the ΔTm at 1000 µM is 2 °C. On LdtMt2 [2] (setting [8]), the IC50 is 15.8 µM.

For `C[C@H](N)C(=O)N[C@H](CCC(=O)N[C@@H](CCCCN)C(=O)N[C@H](C)C(=O)O)C(=O)O` [Compound 10, L-Ala-D-iGlu-L-Lys-D-Ala, reference compound] (H-A[d(γGlu)]K[dA]-OH), at LdtMt2 [1], the ΔTm at 500 µM came out at 1.5 °C and the ΔTm at 1000 µM worked out at 3 °C. The IC50 at LdtMt2 [2] (setting [8]) is 15.8 µM.

In the case of `C[C@H](N)C(=O)N[C@H](CCC(=O)N[C@@H](CCC[C@@H](N)C(=O)O)C(=O)O)C(=O)O` [Compound 12, reference compound], at LdtMt2 [1], the ΔTm at 500 µM was 0.5 °C and the ΔTm at 1000 µM came to 1 °C.

Take `N[C@H](CCC[C@H](NC(=O)CC[C@@H](N)C(=O)O)C(=O)O)C(=O)O` [Compound 13, D-γ-Glu-m-DAP, reference compound]: at LdtMt2 [1], the ΔTm at 500 µM was determined as 1 °C and the ΔTm at 1000 µM was 1.5 °C.

In the case of `C[C@@H](O)[C@H]1C(=O)N2C(C(=O)O)=C(S[C@@H]3CN[C@H](C(=O)N(C)C)C3)[C@H](C)[C@H]12` [Compound 14, Meropenem], the IC50 at LdtMt2 [2] (LdtMt2 500 nM, 30 min preincubation rt, substrate 1 35 µM, 50 mM sodium phosphate pH 8.0, 100 mM NaCl, 37 °C, quadruplicate, read-out: Transpeptidase activity assay pIC50 (mean ± SD) (converted)) is 0.631 µM. Besides, the “Transpeptidase interference assay pIC50 (mean ± SD)” value at DAAO and HRP is recorded as less than 4.0. Also, the “Fluorogenic probe assay pIC50 (mean ± SD)” value at LdtMt2 [3] is on record as 5.9 ± 0.04.

For the compound `C[C@@H](O)[C@H]1C(=O)N2C(C(=O)O)=C([C@H]3CCCO3)S[C@H]12` [Compound 15, Faropenem], the “Transpeptidase interference assay pIC50 (mean ± SD)” value at DAAO and HRP is given as less than 4.0.

As to `O=c1c2ccccc2[se]n1-c1ccccc1` [Compound 24, Ebselen], on LdtMt2 [2] (LdtMt2 500 nM, 30 min preincubation rt, substrate 1 35 µM, 50 mM sodium phosphate pH 8.0, 100 mM NaCl, 37 °C, quadruplicate), the “Transpeptidase activity assay pIC50 (mean ± SD)” value came to 6.8 ± 0.2. For the same compound, the “Transpeptidase interference assay pIC50 (mean ± SD)” value on DAAO and HRP is on record as 5.0 ± 0.4. Further, in the test with DAAO and HRP (inhibition of DAAO and HRP, in words), the “Interference with the DAAO/HRP assay” value is recorded as “cause interference”. Moreover, the “Fluorogenic probe assay pIC50 (mean ± SD)” value on LdtMt2 [3] is 6.7 ± 0.04.

As to “GlcNAc-MurNAc-L-Ala-D-iGluNH2-m-DAPNH2-D-Ala [Compound 1]”, at LdtMt2 [4], the “LdtMt2 turnover / transpeptidase product formation (LC-MS)” value is “led to formation of products”. For the same compound, on LdtMt2 [1], the “Shift in melting temperature compared to unmodified LdtMt2, 500 µM” value was “+1.5 °C”; the “Shift in melting temperature compared to unmodified LdtMt2, 1 mM” value (“Shift in melting temperature … 1 mM” below) is “+2.0 °C”; the “Tm 500 µM” value was 45 °C; the “Tm 1 mM” value turned out to be 45.5 °C. At LdtMt2 [5], the “Covalent adducts of LdtMt2 (SPE-MS)” value is recorded as “no covalent adducts of LdtMt2 were observed”. Also, on LdtMt2 [6], the Reaction rate is 120.0 ± 1.7 RFU min^−1 and the Vmax result is reported as “Ambiguous”.

With “GlcNAc-MurNAc-L-Ala-D-iGluNH2-m-DAPNH2-D-Ala-D-Ala [Compound 4]”, the “LdtMt2 turnover / transpeptidase product formation (LC-MS)” value on LdtMt2 [4] is reported as “did not manifest evidence for reaction”. Also, at LdtMt2 [1], the “Shift in melting temperature … 1 mM” value is “+2.5 °C”; the “Tm 500 µM” value turned out to be 45.5 °C; the “Tm 1 mM” value came out at 46 °C. The “LdtMt2 inhibition by non-substrate peptidoglycan fragments, in words” value on LdtMt2 [2] (pH 8) is reported as “modest LdtMt2 inhibition”.

Take “GlcNAc-Muramitol-L-Ala-D-iGluNH2-m-DAPNH2-D-Ala [Compound 2]”: on LdtMt2 [4], the “LdtMt2 turnover / transpeptidase product formation (LC-MS)” value is reported as “led to formation of products”.

Regarding “GlcNAc-muramitol-L-Ala-D-iGluNH2-m-DAPNH2-D-Ala-D-Ala [reduced pentapeptide monomer of Mtb]”, the “LdtMt2 substrate or not” value at LdtMt2 [7] is “is not an LdtMt2 substrate”.

On to “L-Ala-D-iGluNH2-L-Lys-D-Ala [Compound 11]”, for which the “LdtMt2 turnover / transpeptidase product formation (LC-MS)” value at LdtMt2 [4] is on record as “is not a substrate for LdtMt2”.

By Km is commonly meant the concentration of substrate that gives half-maximal velocity. By kcat/KM is commonly meant the second-order rate constant that governs catalysis at low substrate concentration. One may read the kcat/Km as the turnover number divided by the Michaelis constant. In the case of “lactoyl-L-Ala-D-iGluNH2-m-DAPNH2-D-Ala [Compound 3]”, the “LdtMt2 turnover / transpeptidase product formation (LC-MS)” value at LdtMt2 [4] is “led to formation of products”. For the same compound, at LdtMt2 [1], the “Shift in melting temperature compared to unmodified LdtMt2, 500 µM” value is “+1.5 °C”; the “Shift in melting temperature … 1 mM” value was “+2.0 °C”; the “Tm 500 µM” value came out at 45 °C; the “Tm 1 mM” value came out at 45.5 °C. Also, at LdtMt2 [5], the “Covalent adducts of LdtMt2 (SPE-MS)” value is given as “no covalent adducts of LdtMt2 were observed”. At LdtMt2 [6], the Km turned out to be 6.2 mM, the Reaction rate stood at 224.2 ± 2.6 RFU min^−1, the Vmax turned out to be 1.4 ± 0.5 and the kcat came out at 2.6 ± 0.9. On LdtMt2 [6], the kcat/KM stood at 4.2 min⁻¹ M⁻¹ and the kcat/Km worked out at 4.2 min⁻¹ M⁻¹.
